Data taken from PubChem BioAssay (NCI).
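Interpolation was linear, between the two tested concentrations surrounding the appropriate level; five concentrations were tested over 48 hours in 96-well plates. GI50 = concentration required for 50% inhibition of growth. The concentration for full growth arrest is given as TGI.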

Legend:
Assay in all cases: NCI tumour cell line growth inhibition, 48 h; in the data active = GI50 below about 0.43 µM; inactive = the rest
IGROV1 ovarian = test system: IGROV1 ovarian
UACC-62 melanoma = test system: UACC-62 melanoma
SF-539 CNS = test system: SF-539 CNS
NCI-H226 lung = test system: NCI-H226 lung
MALME-3M melanoma = test system: MALME-3M melanoma
K-562 leukemia = test system: K-562 leukemia
DU-145 prostate = test system: DU-145 prostate
SK-MEL-2 melanoma = test system: SK-MEL-2 melanoma
HL-60(TB) leukemia = test system: HL-60(TB) leukemia
SK-OV-3 ovarian = test system: SK-OV-3 ovarian
M14 melanoma = test system: M14 melanoma
ACHN renal = test system: ACHN renal
SN12C renal = test system: SN12C renal
OVCAR-4 ovarian = test system: OVCAR-4 ovarian
TK-10 renal = test system: TK-10 renal
NCI-H23 lung = test system: NCI-H23 lung
HCC-2998 colon = test system: HCC-2998 colon
LOX IMVI melanoma = test system: LOX IMVI melanoma
RXF 393 renal = test system: RXF 393 renal
OVCAR-5 ovarian = test system: OVCAR-5 ovarian
T-47D breast = test system: T-47D breast
SK-MEL-5 melanoma = test system: SK-MEL-5 melanoma
UACC-257 melanoma = test system: UACC-257 melanoma
RPMI-8226 leukemia = test system: RPMI-8226 leukemia
CCRF-CEM leukemia = test system: CCRF-CEM leukemia
OVCAR-8 ovarian = test system: OVCAR-8 ovarian
U251 CNS = test system: U251 CNS
OVCAR-3 ovarian = test system: OVCAR-3 ovarian
HT29 colon = test system: HT29 colon
HOP-92 NSCLC = test system: HOP-92 NSCLC
HCT-15 colon = test system: HCT-15 colon
NCI-H522 lung = test system: NCI-H522 lung
EKVX NSCLC = test system: EKVX NSCLC
MDA-MB-435 = test system: MDA-MB-435
HOP-62 NSCLC = test system: HOP-62 NSCLC
MDA-MB-231 breast = test system: MDA-MB-231 breast
SNB-19 CNS = test system: SNB-19 CNS
SF-268 CNS = test system: SF-268 CNS
SK-MEL-28 melanoma = test system: SK-MEL-28 melanoma
786-0 renal = test system: 786-0 renal
COLO 205 colon = test system: COLO 205 colon
SF-295 CNS = test system: SF-295 CNS
SW-620 colon = test system: SW-620 colon
KM12 colon = test system: KM12 colon
BT-549 breast = test system: BT-549 breast
NCI-H460 lung = test system: NCI-H460 lung
A549 NSCLC = test system: A549 NSCLC
UO-31 renal = test system: UO-31 renal
A498 renal = test system: A498 renal
SR leukemia = test system: SR leukemia
HCT-116 colon = test system: HCT-116 colon
SNB-75 CNS = test system: SNB-75 CNS
CAKI-1 renal = test system: CAKI-1 renal
MCF7 breast = test system: MCF7 breast
PC-3 prostate = test system: PC-3 prostate
NCI/ADR-RES ovarian = test system: NCI/ADR-RES ovarian
MOLT-4 leukemia = test system: MOLT-4 leukemia
HS 578T breast = test system: HS 578T breast

CCN(CC)CCCN1C(=O)c2c(c(C)c3c(oc4cc(O)ccc43)c2C)C1=O
inactive: GI50 (IGROV1 ovarian) 1.74 µM | GI50 (UACC-62 melanoma) 1.92 µM | GI50 (SF-539 CNS) 1.77 µM | GI50 (NCI-H226 lung) 4.47 µM | GI50 (MALME-3M melanoma) 1.83 µM | GI50 (DU-145 prostate) 1.83 µM | GI50 (SK-MEL-2 melanoma) 15.7 µM | GI50 (HL-60(TB) leukemia) 1.69 µM | GI50 (SK-OV-3 ovarian) 1.73 µM | GI50 (M14 melanoma) 1.8 µM | GI50 (ACHN renal) 1.68 µM | GI50 (SN12C renal) 1.81 µM | GI50 (OVCAR-4 ovarian) 1.84 µM | GI50 (TK-10 renal) 1.77 µM | GI50 (NCI-H23 lung) 1.85 µM | GI50 (HCC-2998 colon) 1.78 µM | GI50 (LOX IMVI melanoma) 1.79 µM | GI50 (RXF 393 renal) 1.54 µM | GI50 (OVCAR-5 ovarian) 1.72 µM | GI50 (T-47D breast) 1.85 µM | GI50 (SK-MEL-5 melanoma) 1.73 µM | GI50 (UACC-257 melanoma) 1.81 µM | GI50 (RPMI-8226 leukemia) 1.93 µM | GI50 (OVCAR-8 ovarian) 1.78 µM | GI50 (U251 CNS) 1.74 µM | GI50 (OVCAR-3 ovarian) 1.79 µM | GI50 (HT29 colon) 1.39 µM | GI50 (HOP-92 NSCLC) 1.48 µM | GI50 (HCT-15 colon) 1.77 µM | GI50 (NCI-H522 lung) 1.84 µM | GI50 (EKVX NSCLC) 1.51 µM | GI50 (MDA-MB-435) 1.76 µM | GI50 (HOP-62 NSCLC) 1.73 µM | GI50 (MDA-MB-231 breast) 1.81 µM | GI50 (SNB-19 CNS) 1.75 µM | GI50 (SF-268 CNS) 1.74 µM | GI50 (SK-MEL-28 melanoma) 1.83 µM | GI50 (786-0 renal) 1.8 µM | GI50 (COLO 205 colon) 1.56 µM | GI50 (SF-295 CNS) 1.84 µM | GI50 (SW-620 colon) 1.73 µM | GI50 (KM12 colon) 1.8 µM | GI50 (BT-549 breast) 14.2 µM | GI50 (NCI-H460 lung) 1.82 µM | GI50 (A549 NSCLC) 1.85 µM | GI50 (UO-31 renal) 1.66 µM | GI50 (A498 renal) 5.06 µM | GI50 (SR leukemia) 1.58 µM | GI50 (HCT-116 colon) 1.62 µM | GI50 (SNB-75 CNS) 1.52 µM | GI50 (CAKI-1 renal) 1.62 µM
2.91 µM: TGI (SNB-75 CNS)
3.8 µM: TGI (T-47D breast)
3.67 µM: TGI (HL-60(TB) leukemia)
3.35 µM: TGI (SNB-19 CNS) | TGI (NCI-H460 lung)
3.32 µM: TGI (DU-145 prostate) | TGI (SF-295 CNS)
1.76 µM: TGI (CCRF-CEM leukemia)
3.28 µM: TGI (M14 melanoma) | TGI (TK-10 renal)
3.54 µM: TGI (A549 NSCLC)
4.17 µM: TGI (RPMI-8226 leukemia)
3.05 µM: TGI (ACHN renal) | TGI (CAKI-1 renal)
active: GI50 (K-562 leukemia) 0.188 µM | GI50 (CCRF-CEM leukemia) 0.359 µM
3.34 µM: TGI (SF-268 CNS)
3.41 µM: TGI (SN12C renal)
3.72 µM: TGI (NCI-H23 lung)
3.39 µM: TGI (HCT-15 colon)
3.14 µM: TGI (SK-MEL-5 melanoma)
3.02 µM: TGI (HOP-92 NSCLC)
3.61 µM: TGI (OVCAR-8 ovarian)
3.29 µM: TGI (HOP-62 NSCLC)
3.09 µM: TGI (UO-31 renal)
3.25 µM: TGI (SW-620 colon)
3.47 µM: TGI (MDA-MB-231 breast)
3.51 µM: TGI (MALME-3M melanoma)
16.9 µM: TGI (A498 renal)
3.27 µM: TGI (HCC-2998 colon) | TGI (OVCAR-3 ovarian)
27.4 µM: TGI (NCI-H226 lung)
3.4 µM: TGI (IGROV1 ovarian) | TGI (SK-MEL-28 melanoma)
3.66 µM: TGI (NCI-H522 lung)
3.99 µM: TGI (SR leukemia)
3.16 µM: TGI (EKVX NSCLC)
3.22 µM: TGI (OVCAR-5 ovarian) | TGI (MDA-MB-435)
3.55 µM: TGI (OVCAR-4 ovarian)
3.44 µM: TGI (UACC-62 melanoma)
32.6 µM: TGI (SK-MEL-2 melanoma)
2.85 µM: TGI (HT29 colon)
3.37 µM: TGI (KM12 colon)
0.464 µM: TGI (K-562 leukemia)
3.3 µM: TGI (LOX IMVI melanoma)
3.2 µM: TGI (SK-OV-3 ovarian) | TGI (U251 CNS)
3.11 µM: TGI (HCT-116 colon)
3.18 µM: TGI (SF-539 CNS)
3.13 µM: TGI (COLO 205 colon)
3.43 µM: TGI (786-0 renal)
3.62 µM: TGI (UACC-257 melanoma)
3.24 µM: TGI (RXF 393 renal)
29.6 µM: TGI (BT-549 breast)

CCSc1nc(=S)[nH]c2[nH]ncc12
inactive: GI50 (IGROV1 ovarian) 70.3 µM | GI50 (UACC-62 melanoma) 66.3 µM | GI50 (SF-539 CNS) 45.1 µM | GI50 (NCI-H226 lung) 70.6 µM | GI50 (MALME-3M melanoma) > 100 µM | GI50 (K-562 leukemia) > 100 µM | GI50 (DU-145 prostate) > 100 µM | GI50 (SK-MEL-2 melanoma) > 100 µM | GI50 (HL-60(TB) leukemia) > 100 µM | GI50 (SK-OV-3 ovarian) 78.9 µM | GI50 (M14 melanoma) > 100 µM | GI50 (ACHN renal) 93.6 µM | GI50 (SN12C renal) > 100 µM | GI50 (OVCAR-4 ovarian) > 100 µM | GI50 (TK-10 renal) 88.9 µM | GI50 (NCI-H23 lung) > 100 µM | GI50 (HCC-2998 colon) 59.1 µM | GI50 (LOX IMVI melanoma) 49.3 µM | GI50 (RXF 393 renal) 98.3 µM | GI50 (OVCAR-5 ovarian) > 100 µM | GI50 (MCF7 breast) 66.8 µM | GI50 (T-47D breast) 86.1 µM | GI50 (SK-MEL-5 melanoma) 59.1 µM | GI50 (UACC-257 melanoma) > 100 µM | GI50 (RPMI-8226 leukemia) > 100 µM | GI50 (CCRF-CEM leukemia) 59 µM | GI50 (OVCAR-8 ovarian) > 100 µM | GI50 (U251 CNS) > 100 µM | GI50 (OVCAR-3 ovarian) 64.6 µM | GI50 (HT29 colon) > 100 µM | GI50 (HOP-92 NSCLC) 91.6 µM | GI50 (HCT-15 colon) > 100 µM | GI50 (NCI-H522 lung) 46.1 µM | GI50 (EKVX NSCLC) 54.1 µM | GI50 (MDA-MB-435) 63.1 µM | GI50 (HOP-62 NSCLC) > 100 µM | GI50 (MDA-MB-231 breast) > 100 µM | GI50 (SNB-19 CNS) > 100 µM | GI50 (SF-268 CNS) 51.9 µM | GI50 (SK-MEL-28 melanoma) > 100 µM | GI50 (786-0 renal) > 100 µM | GI50 (COLO 205 colon) 38.1 µM | GI50 (SF-295 CNS) > 100 µM | GI50 (SW-620 colon) 97.8 µM | GI50 (KM12 colon) 86.5 µM | GI50 (BT-549 breast) > 100 µM | GI50 (NCI-H460 lung) > 100 µM | GI50 (A549 NSCLC) > 100 µM | GI50 (PC-3 prostate) > 100 µM | GI50 (UO-31 renal) 75.2 µM | GI50 (A498 renal) 21.6 µM | GI50 (NCI/ADR-RES ovarian) > 100 µM | GI50 (HCT-116 colon) > 100 µM | GI50 (MOLT-4 leukemia) > 100 µM | GI50 (SNB-75 CNS) > 100 µM | GI50 (CAKI-1 renal) 50.8 µM | GI50 (HS 578T breast) 26 µM
72.7 µM: TGI (A498 renal)
60.8 µM: TGI (HS 578T breast)
> 100 µM: TGI (IGROV1 ovarian) | TGI (UACC-62 melanoma) | TGI (SF-539 CNS) | TGI (NCI-H226 lung) | TGI (MALME-3M melanoma) | TGI (K-562 leukemia) | TGI (DU-145 prostate) | TGI (SK-MEL-2 melanoma) | TGI (HL-60(TB) leukemia) | TGI (SK-OV-3 ovarian) | TGI (M14 melanoma) | TGI (ACHN renal) | TGI (SN12C renal) | TGI (OVCAR-4 ovarian) | TGI (TK-10 renal) | TGI (NCI-H23 lung) | TGI (HCC-2998 colon) | TGI (LOX IMVI melanoma) | TGI (RXF 393 renal) | TGI (OVCAR-5 ovarian) | TGI (MCF7 breast) | TGI (T-47D breast) | TGI (SK-MEL-5 melanoma) | TGI (UACC-257 melanoma) | TGI (RPMI-8226 leukemia) | TGI (CCRF-CEM leukemia) | TGI (OVCAR-8 ovarian) | TGI (U251 CNS) | TGI (OVCAR-3 ovarian) | TGI (HT29 colon) | TGI (HOP-92 NSCLC) | TGI (HCT-15 colon) | TGI (NCI-H522 lung) | TGI (EKVX NSCLC) | TGI (MDA-MB-435) | TGI (HOP-62 NSCLC) | TGI (MDA-MB-231 breast) | TGI (SNB-19 CNS) | TGI (SF-268 CNS) | TGI (SK-MEL-28 melanoma) | TGI (786-0 renal) | TGI (COLO 205 colon) | TGI (SF-295 CNS) | TGI (SW-620 colon) | TGI (KM12 colon) | TGI (BT-549 breast) | TGI (NCI-H460 lung) | TGI (A549 NSCLC) | TGI (PC-3 prostate) | TGI (UO-31 renal) | TGI (NCI/ADR-RES ovarian) | TGI (HCT-116 colon) | TGI (MOLT-4 leukemia) | TGI (SNB-75 CNS) | TGI (CAKI-1 renal)
